The source of these data is patent US20050053580A1, “Use of microbiology non-viral substances for treating acne” (priority 2001, published 2005).

The test system of data set [1] is SZ95 sebocytes. The data set can be described thus: SZ95 sebocyte proliferation, crystal violet assay. The conditions noted are these: for inhibition of the testosterone-induced stimulation of the SZ95 sebocyte proliferation: 10^−7 M testosterone, stimulation period 44 hours; for increase in proliferation: after 72 h, native SZ95 sebocytes. It counts as cell-based, human.

In data set [2] the test system is androgen receptor. Nature of the data set: Androgen receptor expression by immunoblotting in SZ95 sebocytes. It counts as cell-based, human. The conditions noted are these: for inhibition of the androgen receptor expression compared to native SZ95 sebocytes: 1.0 μM, after 14 h; for protein expression of the androgen receptor: 0.4 and 1.0 μM, after 24 hours.
[3] abbreviates: 1 μM oligonucleotide, 4 h transfection, 14 h recovery.

As for “5′-CTGCACTTCCATCCTTGAGCTTGGC-3′ [Thioate antisense oligonucleotide]”, in data set [1] (setting [3]), the “proliferation pattern in the presence of testosterone” value is listed as “same proliferation pattern as native cells” and the “inhibition of the testosterone-induced stimulation of the SZ95 sebocyte proliferation” value is “inhibited”. In data set [2], the “inhibition of the androgen receptor expression compared to native SZ95 sebocytes” value was found to be 39% and the “protein expression of the androgen receptor” value is “reduced protein expression”.

In the case of “5′-CTGCCCTTCAATCCCTGAGTTTGGC-3′ (DNA CTGCCCTTCAATCCCTGAGTTTGGC; listed as DNA, chemistry not given here) [mismatch-oligonucleotide, mismatch control oligonucleotide to safeguard antisense specificity, reference compound]”, in data set [2] (four hours' transfection with DOTAP, recovery phase of at least 24 hours, Western blot), the “protein expression of the androgen receptor versus non-transfected cells” value is “comparable”.

Take “5′-GCCAAGCUCAAGGAUGGAAGUGCAG-3′ (antisense GCCAAGCUCAAGGAUGGAAGUGCAG; 2'-O-methylribose, further chemistry not given here) [methylribosyl antisense oligonucleotide against the androgen receptor]”: in data set [1] (setting [3]), the “inhibition of the testosterone-induced stimulation of the SZ95 sebocyte proliferation” value is reported as “highly significant”. Moreover, in data set [2], the “inhibition of the androgen receptor expression compared to native SZ95 sebocytes” value stood at 87% and the “protein expression of the androgen receptor” value was “reduced protein expression”.

For `C[C@]12CCC(=O)C[C@@H]1CC[C@@H]1[C@@H]2CC[C@]2(C)[C@@H](O)CC[C@@H]12` [DHT, 5α-dihydrotestosterone, reference compound], in data set [1] (10^−7-10^−6 DHT), the increase in proliferation result is “significant”.

Consider `C[C@]12CC[C@H]3[C@@H](CCC4=CC(=O)CC[C@@]43C)[C@@H]1CC[C@@H]2O` [testosterone, reference compound], for which the increase in proliferation entry in data set [1] (10^−7 and 5×10^−7 M testosterone) is given as “significant”.
